Test results published in ChEMBL document CHEMBL1201862, “PubChem BioAssay data set” (2004).
Calls of active or inactive are those of the source.

Legend:
[1] = molecular target: Genome polyprotein (dengue virus type 2, UniProt P29990); test: flavivirus cap methylation enzyme inhibition – biochemical, confirmation dose response, primary screen (AID 588689); type: functional
[2] = molecular target: T1, Carboxy-terminal domain RNA polymerase II polypeptide A small phosphatase 1 (Homo sapiens, UniProt Q9GZU7); test: CTDSP1 inhibitors, concentration-response, biochemical, absorbance readout, ultra-high-throughput screen actives (AID 540297); type: functional
T1 sequence (Q9GZU7 whole entry): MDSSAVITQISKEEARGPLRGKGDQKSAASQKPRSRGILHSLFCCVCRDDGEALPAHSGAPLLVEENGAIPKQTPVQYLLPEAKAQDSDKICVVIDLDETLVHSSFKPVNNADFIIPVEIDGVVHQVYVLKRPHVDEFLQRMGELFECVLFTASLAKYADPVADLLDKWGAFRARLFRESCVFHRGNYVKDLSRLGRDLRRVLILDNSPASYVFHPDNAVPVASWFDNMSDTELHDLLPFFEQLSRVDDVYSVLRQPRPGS

[3] = molecular target: T2, DNA dC->dU-editing enzyme APOBEC-3G (Homo sapiens, UniProt Q9HC16); type: functional
T2 sequence (Q9HC16 whole entry): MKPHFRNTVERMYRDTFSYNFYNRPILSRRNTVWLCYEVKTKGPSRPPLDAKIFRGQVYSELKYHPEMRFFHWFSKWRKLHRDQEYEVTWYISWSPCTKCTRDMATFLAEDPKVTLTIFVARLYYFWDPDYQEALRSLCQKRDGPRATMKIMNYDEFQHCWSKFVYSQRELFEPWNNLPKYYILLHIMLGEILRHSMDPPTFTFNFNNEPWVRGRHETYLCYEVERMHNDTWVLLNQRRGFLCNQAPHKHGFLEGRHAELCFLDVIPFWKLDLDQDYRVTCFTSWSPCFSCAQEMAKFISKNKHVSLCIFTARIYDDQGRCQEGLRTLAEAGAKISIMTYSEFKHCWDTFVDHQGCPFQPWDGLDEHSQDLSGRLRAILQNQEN

[4] = molecular target: DNA dC->dU-editing enzyme APOBEC-3A (Homo sapiens, UniProt P31941); test: Dose Response confirmation of small molecule APOBEC3A DNA Deaminase Inhibitors via a fluorescence-based single-stranded DNA deaminase assay. [Related pubchem assays (depositor defined):AID493011, AID493024]; type: functional
Chain of DNA dC->dU-editing enzyme APOBEC-3A (P31941 whole entry): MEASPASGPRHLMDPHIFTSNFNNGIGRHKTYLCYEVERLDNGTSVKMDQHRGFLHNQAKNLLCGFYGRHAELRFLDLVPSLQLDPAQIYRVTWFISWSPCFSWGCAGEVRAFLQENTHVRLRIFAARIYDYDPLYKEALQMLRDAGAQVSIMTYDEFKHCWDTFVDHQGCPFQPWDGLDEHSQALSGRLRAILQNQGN

[5] = tested on: HT-1080; test: HT1080 cell viability loss – fluorescence readout (AID 620); type: functional, cell-based; conditions: Homo sapiens
[6] = molecular target: T3, Luciferin 4-monooxygenase (Photinus pyralis, UniProt P08659); test: Counter Screen for Luciferase-based Assay Positives. [Related pubchem assays: 620, 618, 411 ]
T3 sequence (P08659 whole entry): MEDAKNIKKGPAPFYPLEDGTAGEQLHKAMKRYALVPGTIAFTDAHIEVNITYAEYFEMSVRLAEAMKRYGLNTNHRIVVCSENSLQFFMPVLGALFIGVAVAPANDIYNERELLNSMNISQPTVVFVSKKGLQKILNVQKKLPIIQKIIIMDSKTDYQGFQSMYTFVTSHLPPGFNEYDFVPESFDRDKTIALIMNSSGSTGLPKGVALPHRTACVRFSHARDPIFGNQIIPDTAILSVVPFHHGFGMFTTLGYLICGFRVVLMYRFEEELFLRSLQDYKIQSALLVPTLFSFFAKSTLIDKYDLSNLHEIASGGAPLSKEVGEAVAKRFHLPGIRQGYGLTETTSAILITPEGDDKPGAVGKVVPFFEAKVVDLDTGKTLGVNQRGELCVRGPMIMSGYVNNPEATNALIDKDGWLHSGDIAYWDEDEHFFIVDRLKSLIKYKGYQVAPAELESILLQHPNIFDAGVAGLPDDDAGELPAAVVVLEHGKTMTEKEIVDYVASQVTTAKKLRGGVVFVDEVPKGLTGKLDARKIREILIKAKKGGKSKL

[7] = Luminescence Cell-Based Dose Confirmation HTS to Identify Inhibitors of Platelet Dense Granule Release. [Related pubchem assays: 1663 (Primary HTS), 1678 (Summary of Project)]; type: functional
[8] = molecular target: T3, Luciferin 4-monooxygenase; test: inhibition of purified Photinus pyralis luciferase – biochemical, luminescence, dose response (AID 1891)
[9] = molecular target: Peroxisome proliferator-activated receptor gamma/Nuclear receptor corepressor 2 (Homo sapiens, UniProt P37231+Q9Y618); type: functional
[10] = molecular target: Photoreceptor-specific nuclear receptor (Homo sapiens, UniProt Q9Y5X4); type: functional;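 further: potency for compounds that break the NR2E3 corepressor complex and count as activators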
Chain of Photoreceptor-specific nuclear receptor (Q9Y5X4 whole entry): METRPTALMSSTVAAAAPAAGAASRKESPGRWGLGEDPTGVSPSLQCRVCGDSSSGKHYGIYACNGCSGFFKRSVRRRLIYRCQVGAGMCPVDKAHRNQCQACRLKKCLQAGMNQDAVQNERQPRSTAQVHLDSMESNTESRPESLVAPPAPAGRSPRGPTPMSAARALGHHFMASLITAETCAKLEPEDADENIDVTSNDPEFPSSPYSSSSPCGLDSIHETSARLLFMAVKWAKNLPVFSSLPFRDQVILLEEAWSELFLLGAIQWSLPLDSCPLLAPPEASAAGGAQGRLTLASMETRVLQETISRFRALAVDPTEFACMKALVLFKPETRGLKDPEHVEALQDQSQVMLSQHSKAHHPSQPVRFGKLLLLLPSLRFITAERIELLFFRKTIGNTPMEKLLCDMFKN

[11] = NIH3T3 cell viability loss – ATP luminescence, mouse fibroblasts, counter-screen, dose response (AID 2010); type: functional, cell-based;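 further: cells exposed to compound for about 90 hours before reading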
[12] = Luminescence Cell-Based Dose Retest to Confirm Inhibitors of Cancer Stem Cells. [Related pubchem assays (depositor defined):AID2717, AID2721]; type: functional; conditions: Homo sapiens
[13] = Trypanosoma cruzi growth suppression in host cells – NIH3T3 host cells, beta-gal luminescence, confirmation (AID 2044); type: functional, cell-based;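 further: intracellular parasites grown in NIH/3T3 mouse fibroblasts as host cells; luminescent beta-galactosidase reporter signal from transgenic T. cruzi replicating inside host cells; inhibitors lower the luminescence signal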
[14] = molecular target: T4, Ubiquitin-conjugating enzyme E2 N (Homo sapiens, UniProt P61088); type: functional;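 further: Dose-response confirmation in a TR-FRET assay detecting UBC13-driven polyubiquitin chain formation, inhibition measured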
T4 sequence (P61088 whole entry): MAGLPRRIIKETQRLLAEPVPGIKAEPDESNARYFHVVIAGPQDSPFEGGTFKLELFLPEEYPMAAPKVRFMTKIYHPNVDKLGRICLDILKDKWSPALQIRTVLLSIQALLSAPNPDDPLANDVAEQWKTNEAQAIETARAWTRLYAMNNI

[15] = tested on: HEK293; test: EBV LMP1 TES2 canonical NF-kB signalling blockers – cell-based, HEK293, luciferase, cherry-pick, dose response (AID 588343); type: functional; conditions: Homo sapiens
[16] = molecular target: Voltage-dependent T-type calcium channel subunit alpha-1H (Homo sapiens, UniProt O95180); type: functional;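 further: channel activity triggered by adding a high calcium stimulation buffer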
Chain of Voltage-dependent T-type calcium channel subunit alpha-1H (O95180 whole entry): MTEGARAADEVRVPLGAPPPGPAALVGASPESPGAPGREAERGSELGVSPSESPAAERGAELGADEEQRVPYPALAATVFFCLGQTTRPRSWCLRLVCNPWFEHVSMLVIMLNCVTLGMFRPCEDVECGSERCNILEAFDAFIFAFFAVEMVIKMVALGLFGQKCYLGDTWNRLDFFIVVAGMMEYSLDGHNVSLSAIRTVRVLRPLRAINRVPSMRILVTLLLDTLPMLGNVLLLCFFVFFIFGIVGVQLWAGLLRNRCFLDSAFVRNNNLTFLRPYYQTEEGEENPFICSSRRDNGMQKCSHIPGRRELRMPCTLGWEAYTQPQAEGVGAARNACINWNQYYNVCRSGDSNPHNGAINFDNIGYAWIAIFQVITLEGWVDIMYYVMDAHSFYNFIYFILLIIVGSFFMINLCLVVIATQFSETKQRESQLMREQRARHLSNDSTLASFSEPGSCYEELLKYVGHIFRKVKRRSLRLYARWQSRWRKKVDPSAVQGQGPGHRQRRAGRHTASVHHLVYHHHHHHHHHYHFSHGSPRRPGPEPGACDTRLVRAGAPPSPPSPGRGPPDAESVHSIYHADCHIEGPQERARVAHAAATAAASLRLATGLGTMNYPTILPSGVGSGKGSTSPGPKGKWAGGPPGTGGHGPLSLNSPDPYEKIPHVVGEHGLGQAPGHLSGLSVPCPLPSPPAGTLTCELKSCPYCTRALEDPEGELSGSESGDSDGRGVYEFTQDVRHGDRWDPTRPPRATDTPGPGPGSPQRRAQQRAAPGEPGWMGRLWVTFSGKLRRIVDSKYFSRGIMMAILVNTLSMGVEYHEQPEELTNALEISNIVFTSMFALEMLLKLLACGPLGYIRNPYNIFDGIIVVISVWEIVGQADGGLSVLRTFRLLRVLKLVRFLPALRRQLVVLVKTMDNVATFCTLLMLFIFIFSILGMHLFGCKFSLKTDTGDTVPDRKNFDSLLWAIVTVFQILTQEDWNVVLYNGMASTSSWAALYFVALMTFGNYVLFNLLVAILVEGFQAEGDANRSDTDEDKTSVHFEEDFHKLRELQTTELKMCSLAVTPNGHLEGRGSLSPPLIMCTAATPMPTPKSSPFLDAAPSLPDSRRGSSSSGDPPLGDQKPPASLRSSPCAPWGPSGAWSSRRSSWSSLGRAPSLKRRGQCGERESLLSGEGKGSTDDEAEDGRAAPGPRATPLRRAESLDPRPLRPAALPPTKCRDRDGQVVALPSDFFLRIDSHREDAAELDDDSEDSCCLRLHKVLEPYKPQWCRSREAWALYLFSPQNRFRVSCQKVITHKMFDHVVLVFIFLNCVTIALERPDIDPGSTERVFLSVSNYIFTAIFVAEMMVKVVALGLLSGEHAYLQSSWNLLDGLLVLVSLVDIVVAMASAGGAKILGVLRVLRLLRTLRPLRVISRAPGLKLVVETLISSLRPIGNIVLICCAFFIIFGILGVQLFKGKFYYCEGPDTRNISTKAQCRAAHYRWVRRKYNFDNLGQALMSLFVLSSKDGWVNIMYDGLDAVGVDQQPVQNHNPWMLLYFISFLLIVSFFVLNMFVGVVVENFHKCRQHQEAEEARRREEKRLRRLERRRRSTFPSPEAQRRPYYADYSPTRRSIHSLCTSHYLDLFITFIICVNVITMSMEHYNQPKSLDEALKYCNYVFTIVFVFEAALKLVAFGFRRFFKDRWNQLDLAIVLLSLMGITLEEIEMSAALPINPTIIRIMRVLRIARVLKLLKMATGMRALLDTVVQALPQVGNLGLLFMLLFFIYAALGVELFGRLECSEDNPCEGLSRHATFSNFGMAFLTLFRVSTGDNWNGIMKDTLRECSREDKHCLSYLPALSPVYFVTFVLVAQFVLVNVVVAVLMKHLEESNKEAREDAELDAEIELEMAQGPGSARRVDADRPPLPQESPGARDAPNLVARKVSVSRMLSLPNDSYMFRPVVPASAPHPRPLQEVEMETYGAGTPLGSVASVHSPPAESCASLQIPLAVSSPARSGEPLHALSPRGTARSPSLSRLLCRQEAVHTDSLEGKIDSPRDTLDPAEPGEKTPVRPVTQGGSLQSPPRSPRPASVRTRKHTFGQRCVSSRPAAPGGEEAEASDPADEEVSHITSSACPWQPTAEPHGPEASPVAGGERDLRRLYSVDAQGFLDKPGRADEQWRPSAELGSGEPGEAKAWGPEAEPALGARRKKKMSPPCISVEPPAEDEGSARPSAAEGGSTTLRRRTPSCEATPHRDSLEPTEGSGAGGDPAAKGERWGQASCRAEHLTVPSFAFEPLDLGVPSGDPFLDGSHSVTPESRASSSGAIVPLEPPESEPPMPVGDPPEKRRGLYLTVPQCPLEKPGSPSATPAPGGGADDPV

[17] = tested on: Streptococcus sp. 'group A'; test: Streptococcus pyogenes SK(-)GAS viability under kanamycin – luminescence, BacTiterGlo, confirmation, counter-screen for streptokinase expression inhibitor project, dose response (AID 1900); type: functional, organism-based
[18] = molecular target: T5, SUMO-activating enzyme (Homo sapiens, UniProt Q9UBT2); test: blockers of SAE1/SAE2–UBC9 SUMO transfer – biochemical, HTRF, uHTS, primary screen (AID 2006); type: protein-complex assay
T5 sequence (Q9UBE0 whole entry): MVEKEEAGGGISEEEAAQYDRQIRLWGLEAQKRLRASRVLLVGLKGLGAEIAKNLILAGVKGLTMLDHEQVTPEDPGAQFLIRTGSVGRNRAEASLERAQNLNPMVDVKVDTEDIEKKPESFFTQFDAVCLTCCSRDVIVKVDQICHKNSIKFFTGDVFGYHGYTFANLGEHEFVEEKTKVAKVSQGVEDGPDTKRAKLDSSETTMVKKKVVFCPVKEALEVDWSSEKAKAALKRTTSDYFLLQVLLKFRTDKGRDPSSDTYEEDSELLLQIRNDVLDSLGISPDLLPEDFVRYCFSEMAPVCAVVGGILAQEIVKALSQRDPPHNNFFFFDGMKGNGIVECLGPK
T5 sequence (Q9UBT2 whole entry): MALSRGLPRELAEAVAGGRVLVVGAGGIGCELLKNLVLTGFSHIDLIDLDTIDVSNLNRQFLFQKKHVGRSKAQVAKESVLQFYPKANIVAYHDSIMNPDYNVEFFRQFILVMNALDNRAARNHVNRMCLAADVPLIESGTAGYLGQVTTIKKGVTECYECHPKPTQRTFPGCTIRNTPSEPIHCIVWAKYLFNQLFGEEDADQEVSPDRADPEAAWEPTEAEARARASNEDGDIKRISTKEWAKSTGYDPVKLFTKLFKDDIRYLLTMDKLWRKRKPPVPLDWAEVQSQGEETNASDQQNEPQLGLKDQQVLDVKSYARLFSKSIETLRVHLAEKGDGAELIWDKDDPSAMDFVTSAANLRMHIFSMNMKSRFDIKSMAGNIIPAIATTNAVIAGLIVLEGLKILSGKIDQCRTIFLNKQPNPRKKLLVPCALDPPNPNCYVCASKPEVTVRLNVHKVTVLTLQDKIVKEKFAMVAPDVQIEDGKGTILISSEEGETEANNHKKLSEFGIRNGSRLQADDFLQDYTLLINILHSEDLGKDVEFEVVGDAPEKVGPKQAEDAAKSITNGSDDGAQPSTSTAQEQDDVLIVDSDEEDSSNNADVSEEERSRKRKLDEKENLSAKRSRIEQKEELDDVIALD

[19] = tested on: Streptococcus; test: GAS UMAA2166 growth inhibition – luminescence, BacTiterGlo, counter-screen for streptokinase expression inhibitor project, dose response (AID 1915); type: functional, organism-based;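 further: potency for reduction of bacterial viability or growth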
[20] = cells; type: functional, cell-based
[21] = molecular target: T5, SUMO-activating enzyme; test: blockers of UBC9-mediated SUMO conjugation – biochemical, AlphaScreen, SUMOylation inhibitor project, confirmation (AID 2018); type: functional
[22] = cells; type: functional, cell-based; remark: listed apart in the source
[23] = tested on: INS1; test: INS-1E survival protection against cytokine death – cell-based, luminescence, retest, dose response (AID 449756); type: functional; conditions: Rattus norvegicus;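 further: cell death triggered by IL-1 beta plus TNF-alpha plus IFN-gamma mixture; protective hits raise ATP signal compared with cytokine alone wells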
[24] = viability of uninfected HEp-2 cells – cell-based, HTS, cytotoxicity control for RSV inhibitor project, dose response (AID 2410); type: functional; conditions: human respiratory syncytial virus
[25] = molecular target: T2, DNA dC->dU-editing enzyme APOBEC-3G; test: Dose Response confirmation of small molecule APOBEC3G DNA Deaminase Inhibitors via a fluorescence-based single-stranded DNA deaminase assay. [Related pubchem assays (depositor defined):AID493012, AID493028]; type: functional
[26] = molecular target: FAD-linked sulfhydryl oxidase ALR (Homo sapiens, UniProt P55789); test: ALR-catalysed DTT oxidation blockers – biochemical, H2O2 detection, luminescence, cherry-pick, dose response (AID 493248)
[27] = Luminescence Cell-Based Dose Response HTS to Identify Inhibitors of 5'UTR Stem-Loop Driven Prion Protein mRNA Translation in H4 Neuroglioblastoma Cells. [Related pubchem assays: 1827 (Project Summary), 1813 (Primary HTS)]; type: functional
[28] = alpha-synuclein stem-loop luciferase translation blockers – H4 neuroglioma cells, luminescence, confirmation (AID 1988); type: functional, cell-based
[29] = molecular target: T6, Microphthalmia-associated transcription factor (Homo sapiens, UniProt O75030); test: reducers of TRPM1 reporter luminescence, concentration series – cell-based, SK-MEL-5, cherry-picked, set 3, MITF inhibitor project, dose response (AID 493073); type: functional;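 further: SK-MEL-5 melanoma cells with luciferase driven by the MITF target TRPM1 promoter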
T6 sequence (O75030 whole entry): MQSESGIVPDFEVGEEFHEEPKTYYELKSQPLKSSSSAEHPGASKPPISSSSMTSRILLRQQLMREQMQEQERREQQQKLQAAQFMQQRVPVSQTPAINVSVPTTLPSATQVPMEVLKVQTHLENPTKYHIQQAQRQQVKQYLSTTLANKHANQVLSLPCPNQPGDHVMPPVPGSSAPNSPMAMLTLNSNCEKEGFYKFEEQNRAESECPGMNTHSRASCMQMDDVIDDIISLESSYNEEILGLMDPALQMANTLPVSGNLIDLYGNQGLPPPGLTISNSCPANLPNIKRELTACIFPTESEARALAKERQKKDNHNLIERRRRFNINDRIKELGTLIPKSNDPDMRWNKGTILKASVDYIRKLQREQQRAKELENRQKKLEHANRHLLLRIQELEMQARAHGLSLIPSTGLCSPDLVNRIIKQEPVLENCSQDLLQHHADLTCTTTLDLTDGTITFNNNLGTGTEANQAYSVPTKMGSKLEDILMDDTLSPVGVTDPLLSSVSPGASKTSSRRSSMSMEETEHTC

[30] = molecular target: Large T antigen (Simian virus 40, UniProt P03070); type: functional, Betapolyomavirus macacae;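 further: Confirmatory-stage PubChem screen for compounds that inhibit SV40 T antigen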
[31] = luciferase reporter signal suppression in cells – H4 neuroglioma cells, luminescence, dose response (AID 1990); type: functional, cell-based
[32] = molecular target: Cytochrome P450 2C9 (Homo sapiens, UniProt P11712)
[33] = molecular target: T7, Cytochrome P450 1A2 (Homo sapiens, UniProt P05177);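 further: PubChem cytochrome P450 panel assay, CYP1A2 panel member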
T7 sequence (P05177 whole entry): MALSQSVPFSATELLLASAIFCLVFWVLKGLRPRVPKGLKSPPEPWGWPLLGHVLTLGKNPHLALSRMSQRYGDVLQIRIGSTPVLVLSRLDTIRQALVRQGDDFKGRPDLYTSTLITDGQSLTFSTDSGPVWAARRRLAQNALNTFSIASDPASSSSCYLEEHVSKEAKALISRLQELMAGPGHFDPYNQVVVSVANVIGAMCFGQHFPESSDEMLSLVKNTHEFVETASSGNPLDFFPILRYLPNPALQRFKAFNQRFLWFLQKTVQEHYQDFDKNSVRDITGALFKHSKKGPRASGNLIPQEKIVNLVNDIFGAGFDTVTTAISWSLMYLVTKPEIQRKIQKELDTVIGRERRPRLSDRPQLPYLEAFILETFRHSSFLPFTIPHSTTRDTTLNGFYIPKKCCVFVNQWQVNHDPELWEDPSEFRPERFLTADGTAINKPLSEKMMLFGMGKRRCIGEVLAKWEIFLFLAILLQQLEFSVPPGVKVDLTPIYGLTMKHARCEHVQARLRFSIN

[34] = molecular target: T8, Protein skinhead-1 (Caenorhabditis elegans, UniProt P34707); type: functional
T8 sequence (P34707 whole entry): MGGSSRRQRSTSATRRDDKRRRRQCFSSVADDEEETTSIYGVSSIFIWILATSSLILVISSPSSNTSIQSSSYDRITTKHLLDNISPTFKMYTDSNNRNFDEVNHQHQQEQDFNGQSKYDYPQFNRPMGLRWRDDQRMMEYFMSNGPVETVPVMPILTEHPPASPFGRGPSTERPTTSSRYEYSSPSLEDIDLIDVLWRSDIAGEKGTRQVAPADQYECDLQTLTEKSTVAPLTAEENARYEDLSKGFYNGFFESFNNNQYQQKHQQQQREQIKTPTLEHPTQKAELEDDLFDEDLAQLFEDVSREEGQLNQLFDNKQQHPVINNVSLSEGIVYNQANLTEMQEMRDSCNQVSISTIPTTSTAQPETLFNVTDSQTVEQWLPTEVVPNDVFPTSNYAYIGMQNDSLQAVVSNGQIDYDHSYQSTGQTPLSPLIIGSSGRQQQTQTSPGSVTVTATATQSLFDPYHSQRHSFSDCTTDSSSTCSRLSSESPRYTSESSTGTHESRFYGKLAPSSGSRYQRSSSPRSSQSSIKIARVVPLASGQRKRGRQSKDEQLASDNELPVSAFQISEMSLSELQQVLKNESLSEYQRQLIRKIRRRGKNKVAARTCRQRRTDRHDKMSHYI

CC(C)CSC1=NSC2=NC(=O)/C(=C\c3ccccc3)C(=N)N12
IC50 [1]: 51.8 µM (active)

CC[N+]1(CC)CC2CCC(C)(C1)C2(C)C (centres undefined)
IC50 [2]: 12.1 µM (active)
IC50 [3]: 3.3 µM (active)
IC50 [4]: 2.28 µM (active)

CCSCCNC(=O)c1cc(-n2cnnc2)ccc1Cl
IC50 [3]: 4.09 µM (active)
IC50 [4]: 4.2 µM (active)

COc1ccc(NC(=O)c2cc3ccccn3n2)cc1
EC50 [5]: 29.9 µM (active)
EC50 [6]: 3.55 µM (active)
EC50 [7]: > 112 µM (not active)
EC50 [8]: 31.4 µM (active)

COC(=O)CCCC[C@H]1SC[C@H]2NC(=O)N[C@]21O
IC50 [9]: 1.92 µM (active)
IC50 [10]: 0.389 µM (active)

CCN1CCN(Cc2ccc(NC(=O)c3ccc(C)c(NC(=O)c4cc(-c5ccc(Br)cc5)[nH]n4)c3)cc2C(F)(F)F)CC1
EC50 [11]: > 30 µM (not active)
AC50 [12]: 3.4 µM (active)
EC50 [13]: 1.53 µM (active)
IC50 [14]: > 20 µM (inactive)
AC50 [15]: 0.741 µM (active)

CC(C(=O)N1c2ccccc2CCc2ccccc21)n1nnc(-c2ccc(N(C)C)cc2)n1 (centres undefined)
EC50 [16]: 4.2 µM (active)

O=C(N/N=C/c1cc(Br)cc(Br)c1O)c1ccncc1
EC50 [17]: 0.807 µM (active)
IC50 [18]: 8.52 µM (active)
EC50 [19]: 2.5 µM (active)
EC50 [20]: 24.8 µM (active)
IC50 [21]: 5.03 µM (active)
EC50 [22]: > 350 µM (not active)
AC50 [23]: 2.64 µM (active)

CC(Sc1nnc(-c2cccs2)n1Cc1ccccc1)C(=O)NCc1ccc2c(c1)OCO2 (centres undefined)
EC50 [16]: 9.04 µM (active)

O=C1NC(=O)N(Cc2ccco2)C(=O)/C1=C\c1cccn1CCOc1ccc(Cl)cc1
IC50 [18]: 35.7 µM (active)
IC50 [21]: 5.71 µM (active)
CC50 [24]: 24.2 µM (active)

CCC(Sc1nc(O)c(C#N)c(-c2ccccc2)n1)C(=O)Nc1cc(C)on1 (centres undefined)
IC50 [9]: 4.41 µM (active)
IC50 [10]: > 39.8 µM (not active)

O=C(COc1ccc(CO)cc1Cl)Nc1ccc(F)cc1
EC50 [5]: > 50 µM (not active)
EC50 [6]: > 100 µM (not active)

Cc1noc(C)c1CSc1nc2cc(S(=O)(=O)N3CCOCC3)ccc2o1
IC50 [25]: 50.7 µM (active)

O=C(O)CN1C(=O)/C(=C\c2cccc(OCc3ccccc3)c2)SC1=S
IC50 [1]: 42.2 µM (active)
AC50 [26]: 4.52 µM (active)

CCOCCCNC(=O)c1cn(CC(C)C)c(=O)c2c1c1ccccc1n2C
IC50 [14]: > 20 µM (inactive)

Nc1ccc(-c2nc3c(Cl)cc(N)cc3[nH]2)cc1
EC50 [27]: 0.21 µM (active)
EC50 [5]: > 50 µM (not active)
EC50 [28]: 7.08 µM (active)
AC50 [29]: 3.76 µM (active)
AC50 [26]: 0.556 µM (active)
EC50 [6]: < 0.2 µM (active)
IC50 [30]: 9.32 µM (active)
EC50 [31]: 9.81 µM (active)

COc1ccc(CSCC(=O)N/N=C/c2ccc(OCC(=O)N3CCCCC3)cc2)cc1
IC50 [3]: 6.1 µM (active)
IC50 [4]: 5.86 µM (active)

COc1ccc(CCNC(=O)C2CCCN(Cc3nc(-c4cccc(Cl)c4)oc3C)C2)cc1OC (centres undefined)
AC50 [32]: 6.31 µM (inconclusive)
EC50 [16]: 5.34 µM (active)
EC50 [11]: > 60 µM (not active)
AC50 [33]: 15.8 µM (inconclusive)
EC50 [13]: 0.145 µM (active)

Cc1ccc(C)c(N2CCN(C(c3ccc(N(C)C)cc3)c3nnnn3C(C)(C)C)CC2)c1 (centres undefined)
EC50 [16]: 4.2 µM (active)
IC50 [34]: > 100 µM (inactive)
